Where a SMILES comes first, the peptide text is derived from it. The star is where a group is joined. Cbz = O=C(OCc1ccccc1)*
Experiments:
proteasome = molecular target: T1, proteasome (Rattus norvegicus, UniProt P28075); assay: Assay for chymotrypsin-like activity of the proteasome in PC12 cell lysates (LLVY-AFC substrate); format: cell-based; settings: cells treated overnight with 0.5 μM inhibitor; lysate assayed with 100 μM LLVY-AFC, 37° C., 10 min
T1 construct: endogenous in cells; host or cells: rat PC12 clonal lines (empty vector, or stably expressing human wild-type or A53T alpha-synuclein)
T1 sequence (P28075 60-263): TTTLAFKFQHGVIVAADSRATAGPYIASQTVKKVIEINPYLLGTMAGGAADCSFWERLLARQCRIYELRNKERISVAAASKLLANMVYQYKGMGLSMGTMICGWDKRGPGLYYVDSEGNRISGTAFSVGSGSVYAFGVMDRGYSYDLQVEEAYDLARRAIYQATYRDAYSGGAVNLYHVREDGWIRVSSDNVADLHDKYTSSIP
Method: Cells from the different lines were triturated off the dish, centrifuged, and washed in PBS. The resulting pellets were resuspended in 200-500 μl of lysis buffer (10 mM Tris-HCl, pH 7.8, with 1 mM ATP, and 10% glycerol) (Figueiredo-Pereira et al., A new inhibitor of the chymotrypsin-like activity of the multicatalytic proteinase complex (20S proteasome) induces accumulation of ubiquitin-protein conjugates in a neuronal cell. J. Neurochem., 63:1578-1581, 1994). The cells were left for 20 min on ice and then lysed with 30 strokes of a Dounce homogenizer. The lysates were then centrifuged at 10,000×g for 10 min. Fifty micrograms of protein of the resulting supernatants was included in an assay buffer of 100 mM Tris-HCl, pH 8.0, 2 mM CaCl2, 1 mM ATP, and a 100 μM concentration of the fluorogenic substrate LLVY-7-amino-4-trifluoromethyl coumarin (AFC) (Enzyme Systems Products, Livermore, Calif.) in a total final volume of 1 ml. The assay was performed at 37° C. for 10 min (Figueiredo-Pereira et al., 1994, supra). The activity was then measured in a SLM 8000 fluorometer, with assay buffer without lysate as blank. The activity was linear with respect to the amount of protein (in the range of 25-200 μg of protein).

[1] = tested on: PC12 cell lines expressing A53T mutant α-synuclein; assay: Trypan blue assay of cell death in mutant A53T α-synuclein PC12 lines; format: cell-based, rat; settings: 50 μM, data not shown
Method: The day before the trypan blue assay, subconfluent cultures were rinsed twice with complete medium to remove cells at late stages of degeneration. The following day the cells were triturated off the dish and five drops of the cellular suspension were added in a tube together with five drops of Trypan blue solution (0.4%; Sigma-Aldrich, St. Louis, Mo.). After light mixing, the cells were placed on a glass slide, coverslipped, and visualized under 20× magnification. For each line, three fields of 100 cells each were assessed for the percentage of Trypan blue-positive cells. The results reported are the mean±SEM (n=3).
To test for potential involvement of caspases in cellular degeneration associated with expression of A53T α-synuclein, control, wild-type, and mutant lines were examined for basal caspase-3-like activity, as measured by cleavage of the fluorogenic substrate DEVD-AFC (15 μM; Enzyme Systems Products, Livermore, Calif.). No difference was found in basal activity among cell lines (data not shown). […] It can be concluded that PC12 cell lines expressing A53T mutant α-synuclein display enhanced cellular degeneration that appears nonapoptotic by morphological and biochemical criteria.

Row | Compound | chymotrypsin-like proteasomal activity remaining in lysates of treated cells (proteasome) [%] | effect on percentage of Trypan blue-positive cells [1]
1 | CC(C)C[C@@H](C=O)NC(=O)[C@H](CC(C)C)NC(=O)[C@H](CC(C)C)NC(=O)OCc1ccccc1 [MG132] (Cbz-Leu-Leu-Leu-aldehyde) | < 5 | 
2 | Boc-aspartate-fluoromethyl ketone |  | did not affect

Source: patent US20040197315A1, “Dopaminergic cell lines stably expressing A53T alpha-synuclein and methods of using same” (priority 2002, published 2004)
